Measured values published in the NIST ThermoML archive (doi:10.1016/j.jct.2008.10.007).

Tests used:
[1] = xn = mol fraction of the nth substance listed; settings: 298.15 K, 101 kPa, Liquid, Vibrating tube method
[2] = excess molar enthalpy (molar enthalpy of mixing); xn = mol fraction of the nth substance listed; settings: 298.15 K, 101 kPa, Liquid, Calvet calorimetry
[3] = 298.15 K; 101 kPa; Liquid; Vibrating tube method

CCCOC=O [propyl methanoate] + ClCCCCCl
Settings	excess molar enthalpy [kcal/mol]	mass density [kg/m3]
[1], x1 = 0.0699	–	1119.28
[1], x1 = 0.1344	–	1105.73
[1], x1 = 0.2012	–	1091.45
[1], x1 = 0.3873	–	1050.4
[1], x1 = 0.4476	–	1036.71
[1], x1 = 0.5676	–	1008.76
[1], x1 = 0.6231	–	995.55
[1], x1 = 0.6814	–	981.44
[1], x1 = 0.7384	–	967.39
[1], x1 = 0.7933	–	953.67
[1], x1 = 0.8452	–	940.47
[1], x1 = 0.8982	–	926.78
[1], x1 = 0.9521	–	912.65
[1], x1 = 1	–	899.81
[2], x1 = 0.0692	0.00932	–
[2], x1 = 0.1586	0.0155	–
[2], x1 = 0.2416	0.0191	–
[2], x1 = 0.3365	0.0184	–
[2], x1 = 0.4234	0.0148	–
[2], x1 = 0.5005	0.01	–
[2], x1 = 0.5667	0.00406	–
[2], x1 = 0.6288	-0.00382	–
[2], x1 = 0.6884	-0.00837	–
[2], x1 = 0.7528	-0.00908	–
[2], x1 = 0.817	-0.00908	–
[2], x1 = 0.8815	-0.00669	–
[2], x1 = 0.9414	-0.00311	–

CCCOC=O [propyl methanoate] + ClCCCCl
Settings	excess molar enthalpy [kcal/mol]	mass density [kg/m3]
[1], x1 = 0.0604	–	1161.58
[1], x1 = 0.1163	–	1145.6
[1], x1 = 0.1772	–	1128.25
[1], x1 = 0.2336	–	1112.22
[1], x1 = 0.2937	–	1095.19
[1], x1 = 0.3531	–	1078.45
[1], x1 = 0.4676	–	1046.35
[1], x1 = 0.5255	–	1030.24
[1], x1 = 0.5854	–	1013.57
[1], x1 = 0.6437	–	997.42
[1], x1 = 0.7051	–	980.49
[1], x1 = 0.7636	–	964.45
[1], x1 = 0.8238	–	947.98
[1], x1 = 0.8823	–	932.02
[1], x1 = 1	–	899.81
[2], x1 = 0.065	-0.00359	–
[2], x1 = 0.1452	-0.00741	–
[2], x1 = 0.2308	-0.0129	–
[2], x1 = 0.3182	-0.0189	–
[2], x1 = 0.3939	-0.0237	–
[2], x1 = 0.4578	-0.0251	–
[2], x1 = 0.5145	-0.0272	–
[2], x1 = 0.5379	-0.027	–
[2], x1 = 0.5862	-0.0268	–
[2], x1 = 0.6669	-0.0246	–
[2], x1 = 0.7509	-0.021	–
[2], x1 = 0.8484	-0.0148	–
[2], x1 = 0.9347	-0.00765	–

CCCOC=O [propyl methanoate] + ClCCCl
Settings	excess molar enthalpy [kcal/mol]	mass density [kg/m3]
[1], x1 = 0.0502	–	1224.05
[1], x1 = 0.0994	–	1203.36
[1], x1 = 0.1495	–	1182.95
[1], x1 = 0.2004	–	1162.75
[1], x1 = 0.2543	–	1141.88
[1], x1 = 0.308	–	1121.58
[1], x1 = 0.3635	–	1101.24
[1], x1 = 0.4207	–	1080.82
[1], x1 = 0.4795	–	1060.31
[1], x1 = 0.5379	–	1040.49
[1], x1 = 0.599	–	1020.32
[1], x1 = 0.6634	–	999.69
[1], x1 = 0.7281	–	979.46
[1], x1 = 0.7928	–	959.73
[1], x1 = 0.8612	–	939.48
[1], x1 = 1	–	899.81
[2], x1 = 0.074	-0.00956	–
[2], x1 = 0.1687	-0.021	–
[2], x1 = 0.2733	-0.0368	–
[2], x1 = 0.3675	-0.0478	–
[2], x1 = 0.4473	-0.0576	–
[2], x1 = 0.5035	-0.0607	–
[2], x1 = 0.5082	-0.0609	–
[2], x1 = 0.5746	-0.0598	–
[2], x1 = 0.6509	-0.0569	–
[2], x1 = 0.7385	-0.049	–
[2], x1 = 0.8389	-0.0344	–
[2], x1 = 0.9272	-0.0184	–

CCCOC(=O)CC [propyl propanoate]
Settings	mass density [kg/m3]
[3]	875.61

CCCOC(=O)CC [propyl propanoate] + ClCCCl
Settings	excess molar enthalpy [kcal/mol]	mass density [kg/m3]
[1], x1 = 0.0347	–	1224.28
[1], x1 = 0.0727	–	1201.87
[1], x1 = 0.1118	–	1180.16
[1], x1 = 0.1538	–	1158.1
[1], x1 = 0.1965	–	1136.61
[1], x1 = 0.2437	–	1114.31
[1], x1 = 0.2932	–	1092.38
[1], x1 = 0.3455	–	1070.49
[1], x1 = 0.3994	–	1049.24
[1], x1 = 0.4599	–	1026.87
[1], x1 = 0.5188	–	1006.4
[1], x1 = 0.5854	–	984.69
[1], x1 = 0.6557	–	963.29
[1], x1 = 0.7316	–	941.63
[1], x1 = 0.8153	–	919.43
[1], x1 = 0.8998	–	898.5
[1], x1 = 1	–	875.61
[2], x1 = 0.0428	-0.0129	–
[2], x1 = 0.1001	-0.0299	–
[2], x1 = 0.1671	-0.0526	–
[2], x1 = 0.2376	-0.0758	–
[2], x1 = 0.3085	-0.0975	–
[2], x1 = 0.3736	-0.115	–
[2], x1 = 0.4312	-0.125	–
[2], x1 = 0.4782	-0.132	–
[2], x1 = 0.5177	-0.133	–
[2], x1 = 0.5861	-0.128	–
[2], x1 = 0.671	-0.117	–
[2], x1 = 0.7874	-0.0853	–
[2], x1 = 0.9084	-0.0437	–
